Target: Prostaglandin G/H synthase 1 (Homo sapiens, UniProt P23219)
Test: Inhibition of COX-1 (unknown origin) using arachidonic acid as substrate at 100 uM preincubated for 5 mins followed by substrate addition and measured after 15 mins relative to control
Conditions: time 20.0 min

Sequence of Prostaglandin G/H synthase 1 (P23219 whole entry): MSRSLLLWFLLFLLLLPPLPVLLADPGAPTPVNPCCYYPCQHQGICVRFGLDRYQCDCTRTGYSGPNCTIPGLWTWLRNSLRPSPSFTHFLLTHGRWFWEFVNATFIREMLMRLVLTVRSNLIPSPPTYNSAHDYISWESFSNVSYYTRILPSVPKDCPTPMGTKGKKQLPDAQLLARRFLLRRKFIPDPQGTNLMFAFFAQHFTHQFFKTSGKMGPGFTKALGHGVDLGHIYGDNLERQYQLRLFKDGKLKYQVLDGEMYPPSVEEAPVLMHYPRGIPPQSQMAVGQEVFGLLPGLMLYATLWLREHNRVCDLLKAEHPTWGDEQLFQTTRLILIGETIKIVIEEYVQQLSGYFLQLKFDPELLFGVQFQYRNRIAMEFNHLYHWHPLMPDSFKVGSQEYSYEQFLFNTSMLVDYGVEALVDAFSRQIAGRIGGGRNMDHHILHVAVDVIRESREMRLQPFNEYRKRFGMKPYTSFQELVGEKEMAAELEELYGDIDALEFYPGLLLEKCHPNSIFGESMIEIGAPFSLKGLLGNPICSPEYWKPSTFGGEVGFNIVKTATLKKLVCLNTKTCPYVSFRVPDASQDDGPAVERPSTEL

Row | inhibition | Structure (SMILES)
1 | > 64% | COc1cc2c(cc1OC)[C@H]1CCN(C2)C(=O)[C@@H](O)[C@H](O[C@@H]2O[C@H](C)[C@@H](OC)[C@H](OC)[C@H]2OC)CC1=O
2 | > 64% | COc1cc2c(cc1O)CN1CC[C@H]2C(=O)C[C@@H](O[C@@H]2O[C@H](CO)[C@@H](OC)[C@H](OC)[C@H]2OC)[C@H](O)C1=O
3 | > 64% | COc1cc2c(cc1OC)[C@H]1CCN(C2)C(=O)[C@@H](O)[C@H](O[C@@H]2O[C@H](C)[C@@H](OC)[C@@H]3OCOCO[C@@H]23)CC1=O
4 | > 64% | COc1c2c(cc3c1OCO3)[C@H]1CCN(C2)C(=O)[C@@H](O)[C@H](O[C@@H]2O[C@H](CO)[C@@H](OC)[C@H](OC)[C@H]2OC)CC1=O

Test system: RAW264.7
Test: Antiinflammatory activity against LPS-stimulated mouse RAW264.7 cells assessed as inhibition of IL-1beta production at 20 uM preincubated for 27 hrs followed by LPS stimulation and measured after 12 hrs by ELISA analysis relative to control
Assay type: functional
Conditions: time 39 hrs

Row | Structure (SMILES) | inhibition at 20 µM
5 | CC1(C)C=Cc2c(ccc3c4c([nH]c23)C(C)(C)[C@@H]2C[C@]35CCCN3C(=O)[C@]2(C4)NC5=O)O1 | > 32.6%
6 | C=CC(C)(C)[C@@]1(C[C@@H]2NC(=O)[C@@H]3CCCN3C2=O)C(=O)Nc2c1ccc(O)c2CC=C(C)C | > 32.6%
7 | CC1(C)C=Cc2c(ccc3c4c(n(S(C)(=O)=O)c23)C(C)(C)[C@@H]2C[C@]35CCCN3C(=O)[C@]2(C4)NC5=O)O1 | > 32.6%
8 | CC1(C)C=Cc2c(ccc3c2NC(=O)[C@@]32C[C@]34NC(=O)[C@]5(CCCN5C3=O)C[C@H]4C2(C)C)O1 | > 32.6%

Test system: RAW264.7
Test: Antiinflammatory activity against LPS-stimulated mouse RAW264.7 cells assessed as inhibition of TNFalpha production at 20 uM preincubated for 27 hrs followed by LPS stimulation and measured after 12 hrs by ELISA analysis relative to control
Assay type: functional
Conditions: time 39 hrs

Row | Structure (SMILES) | inhibition at 20 µM
9 | CC1(C)C=Cc2c(ccc3c4c([nH]c23)C(C)(C)[C@@H]2C[C@]35CCCN3C(=O)[C@]2(C4)NC5=O)O1 | > 32.6%
10 | C=CC(C)(C)[C@@]1(C[C@@H]2NC(=O)[C@@H]3CCCN3C2=O)C(=O)Nc2c1ccc(O)c2CC=C(C)C | > 32.6%
11 | CC1(C)C=Cc2c(ccc3c4c(n(S(C)(=O)=O)c23)C(C)(C)[C@@H]2C[C@]35CCCN3C(=O)[C@]2(C4)NC5=O)O1 | > 32.6%
12 | CC1(C)C=Cc2c(ccc3c2NC(=O)[C@@]32C[C@]34NC(=O)[C@]5(CCCN5C3=O)C[C@H]4C2(C)C)O1 | > 32.6%

Test system: not listed separately
Test: Inhibition of NO production in LPS-stimulated mouse BV-2 cells preincubated with compound for 1 hrs followed by LPS stimulation and measured after 24 hrs by Griess reagent-based assay
Assay type: functional, cell-based
Conditions: not given

Row | IC50 | Structure (SMILES)
13 | 10.9 µM | COc1c(CC=C(C)C)c(C=O)cc2c1[nH]c1cc(O)ccc12
14 | 2.1 µM | CO[C@H]1[C@@H]2C[C@]34CCCCCCCCCCn5ccc2c5C(=O)[C@@H]3[C@H]2[C@H](O)CCCCCCCC[N@@+]21C4
15 | 4.6 µM | COc1ccc2c(c1)[nH]c1cc(OC)c(C(=O)O)cc12 [CLAUSINE K]
16 | 6.4 µM | O=Cc1cc2c(cc1O)[nH]c1cc(O)ccc12 [CLAUSINE O]
17 | 1.1 µM | CO[C@H]1[C@@H]2C[C@]34CCCCCCCCCCn5ccc2c5C(=O)[C@@H]3[C@H]2C(O)C/C=C\C/C=C\CCC[N@@+]21C4 (some centres not stated)

Test system: RAW264.7
Test: Inhibition of NO production in LPS-stimulated mouse RAW264.7 cells incubated for 24 hrs by Griess reagent-based assay
Assay type: functional, cell-based
Conditions: RAW264.7, 24 h

Row | IC50 | Structure (SMILES)
18 | 15.1 µM | C[C@@H](O)C1=CC2=NC=CC3c4ccccc4N(C1=O)C23 (some centres not stated)
19 | 2.4 µM | C/C=C1/CN2CC[C@@H]1C(=O)c1[nH]c3ccc(OC)cc3c1C2
20 | 1.6 µM | C=Cc1cncc2c1CC1c3[nH]c4ccccc4c3CCN1C2=O (configuration not stated)
21 | 0.8 µM | Cc1[nH]c(C=O)c2c1C(=O)N1CCC3(C(=O)Nc4ccccc43)C1C2 (configuration not stated)
22 | 7.7 µM | O=C1C=CC2=NC=CC3c4ccc(O)cc4N1C23 (configuration not stated)
23 | 1.3 µM | Cc1cncc2c1CC1c3[nH]c4ccccc4c3CCN1C2=O (configuration not stated)
24 | 1.39 µM | CC[C@H](C)CN1C(=O)c2cc3c(cc2[C@@]24C=C[C@@H](OC)C[C@@H]2N(C)C(=O)[C@@H]14)OCO3
25 | 1.39 µM | CO[C@@H]1C=C[C@@]23c4cc5c(cc4C(=O)N(CCc4ccccc4)[C@@H]2C(=O)N(C)[C@H]3C1)OCO5
26 | 38.6 µM | CC[C@@H](C)[C@@H](C)C(=O)OC/C=C(\C)C(=O)OC[C@@H]1CCN2CCC[C@H]12
27 | 3.4 µM | C[C@]12CCC(=O)C=C1CC[C@@H]1[C@@H]2[C@@H](O)C[C@@]2(C)[C@H]1CC[C@]2(O)C(=O)CO [HYDROCORTISONE]
28 | 12 µM | O=C1C=CC2=NC=CC3c4cc(O)ccc4N1C23 (configuration not stated)
29 | 9.1 µM | O=C1C=CC2=NC=CC3c4ccccc4N1C23 (configuration not stated)
30 | 12 µM | O=c1c(CO)ccc2n1CCc1c-2[nH]c2ccccc12
31 | 3.6 µM | C/C=C1\CO[C@H](OC)c2c1cc1n(c2=O)CCc2c-1[nH]c1ccccc21

Row | Structure (SMILES) | IC50
32 | N=C(N)NN [PIMAGEDINE] | 1.8 µM
33 | CN1CCc2cc3c(c4c2[C@H]1Cc1ccccc1-4)OCO3 | 1.39 µM
34 | C/C=C(/C)C(=O)O[C@@H]1CC[N+]2([O-])CC=C(COC(=O)[C@](O)(C(C)C)[C@H](C)OC)[C@H]12 (some centres not stated) | 105 µM
35 | O=C1c2ccccc2-c2c3c(cc4ccnc1c24)OCO3 [LIRIODENINE] | 1.39 µM
36 | O=C(OC[C@@H]1CCN2CCC[C@H]12)c1ccccc1 | 25.5 µM

Test system: not listed separately
Test: Inhibition of TNF-alpha production in LPS-stimulated human PBMC cells
Assay type: functional, cell-based
Conditions: not given

Row | IC50 | Structure (SMILES)
37 | 10 µM | COc1cc(Cc2ccc3c(c2)[nH]c2c4c(c(C)cc23)OC(C)(CCC=C(C)C)C=C4)cc2c1[nH]c1ccccc12 (configuration not stated)

— ChEMBL document CHEMBL5226289, “Discovery of natural anti-inflammatory alkaloids: Potential leads for the drug discovery for the treatment of inflammation” (Eur J Med Chem, 2021)
